# Values of other authors as cited in patent US5258185A (priority 1989, dated 1993).
# Key:
# [1] = e.g. incorporation in melts of high molecular polyethylene glycols
# [2] = not given; remark: listed apart in the source
# [3] = extremely fine crystallizates, surface size 3 to 10 m^2 (DE-OS 23 48 334)
compound,measurement,setting,value
"COc1ccc(Cl)cc1C(=O)NCCc1ccc(S(=O)(=O)NC(=O)NC2CCCCC2)cc1 [Glibenclamide, N-4-(5-chloro-[2-methoxy-benzamido)ethyl]phenylisulfonyl-N'-cyclohexyl urea]",bioavailability with increase in surface,[3],improving the bioavailability
same,drug release and bioavailability of micronized glibenclamide,"micronized, mean particle size ±5 μm, above all in the presence of tensides",improved drug release and bioavailability
same,effect of processing at elevated temperatures on stability,[1],detrimental to stability
same,water solubility depending on pH,[2]; acidic range,virtually water-insoluble
same,solubility in alcohol,[2]; alcohol,only moderately soluble
same,solubility in chloroform,[2]; chloroform,only moderately soluble
same,solubility in ether,[2]; ether,virtually insoluble
same,solubility and dissolution rate with increase in surface,[2]; [3],increase in solubility and dissolution rate
same,solubility in water,[2]; water,virtually insoluble
